Data as given in publication PMC5766233, “Ternary copper(II) complex: NCI60 screening, toxicity studies, and evaluation of efficacy in xenograft models of nasopharyngeal carcinoma” (PLoS ONE, 2018).

Key:
[1] = tested on: C666-1-GFP-Luc2 xenograft; test: In vivo efficacy in C666-1-GFP-Luc2 xenograft model; set-up: species or system NOD scid gamma female mice
Source text: Next, we assessed the anticancer efficacy of the Cu(II) complex on another NPC xenograft, the EBV positive C666-1-GFP-Luc2 cells. […] Two mice in this group completed the 14 doses but died on the last day of the experiment while one mouse died on day 13 after receiving 12 doses of the Cu(II) complex. […] Harvested major organs sections stained with hematoxylin and eosin dyes were also examined. […] Therefore, no toxicity was found in mice carrying nasopharyngeal C666-1-GFP-Luc2 when treated with Cu(II) complexes at the doses of 4 mg/kg and 5 mg/kg. The underlying cause of death, presumed to be due to toxicity at the dose of 6 mg/kg, could not be ascertained conclusively because although the liver size was smaller in the treated group, the histopathology of the liver appeared normal and no other abnormalities were detected other than lower spleen size.
2.0 x 10^6 HK1 or C666-1-GFP-Luc2 cells in 100 μl RPMI media mixed with matrigel (BD Matrigel Basement Membrane Matrix; BD Biosciences, Bedford, MA, USA) was inoculated subcutaneously into the right lower flank of the NSG mice. Tumor growth was monitored and measured every other day using a digital caliper (Mitutoyo America Corporation, Aurora, Illinois, USA) until they reached 100–250 mm^3. Then, the mice were randomly assigned into treatment groups. The mice bearing HK1 xenograft tumor were divided into 3 treatment groups and a control (normal saline) group. The first batch received normal saline (one injection daily for 5 days), 6 mg/kg (one injection daily for 5 days) and 8 mg/kg (one injection every other day for 3 doses) of Cu(II) complex while the second batch received normal saline (one injection daily for 4 days), 4 mg/kg (one injection daily for 4 days), 6 mg/kg (one injection daily for 4 days) and 8 mg/kg (one injection every other day for 2 doses) of Cu(II) complex via intraperitoneal route.
Subsequently, for the efficacy assay using mice bearing C666-1-GFP-Luc2 cells, 3 sets of control group versus experimental group were tested in three independent experiments. Mice were randomly assigned into 4, 5 or 6 mg/kg Cu(II) complex and their control groups respectively. Injections were given once daily for 12 to 18 days. Body weight change, food intake, signs of toxicity/morbidity as well as mortality were observed and recorded daily for the duration of the entire experiment. Tumor volumes were determined using a caliper thrice weekly. Tumor volumes were calculated according to the following formula: Tumor volume (mm^3) = (length [mm] X width^2 [mm^2])/2. At the end point of the studies, mice were placed under anesthesia for blood collection via submandibular and cardiac puncture before they were sacrificed for histopathological investigations. Tumors were harvested, imaged, weighed and fixed in formalin.
All H&E-stained tissue section slides were examined under Nikon Eclipse Ni microscope (Nikon Instruments Inc., New York, USA) and microscopic images were taken using 20x and 40x objectives. For H&E tumor section slides, the percentage of tumor necrosis was determined qualitatively using microscope by the histopathologist in order to estimate the percentage of necrotic area induced by the Cu(II) complex in the tumors. For determination of femoral bone marrow suppression, low power (10x magnification) objective was used to scan the slides while 100x magnification to assess the degree of cellularity and amount of fat present.
Firstly, 4 ml of rhodamine stock solution was combined with 46 ml of acetate buffer solution in order to prepare a working rhodamine solution. Tissue sections were prepared, deparaffinized and hydrated in distilled water. Then, a loosely capped staining jar containing working rhodamine was warmed in the microwave oven (Panasonic Corporation, Osaka, Japan). The slide with tissue section was placed in warmed working rhodamine solution and reheated using microwave oven. […]

[2] = Acute in vivo toxicity, single dose; set-up: species or system NOD scid gamma female mice
Description: Acute toxicity caused by the complex was tested on a method modified from the NCI single dose method. The experiment was performed to find the maximum tolerated dose (MTD) for the calculation of doses for repeat-dose animal testing; the experiment was designed to minimize both the use of compound tested and the number of animals to be sacrificed. […] Five doses, viz. 35.0, 17.5, 12.5, 7.5 and 5.5 mg/kg body weight of the Cu(II) complex, were injected intraperitoneally as single doses into each mouse respectively and the mice were observed daily for 14 days for drug-induced toxicity. The findings of the acute toxicity study are listed in S1 Table.
Determination of acute toxicity was carried out using a method adapted from the NCI [43]. Five mice were randomly separated into five cages. Five doses, i.e. 35.0, 17.5, 12.5, 7.5 and 5.5 mg/kg of body weight of Cu(II) complex were injected intraperitoneally as a single dose into each mouse respectively. After the drug administration, mice were observed hourly for any signs of toxicity, mortality, changes in general behavior and physical activities for the first 4 hours, then 4 hourly for 1 day followed by daily observation for 2 weeks. The signs which were monitored and recorded during this study included hypoactivity, lethargy, hypoapnoea, abnormal gait and posture, tremors, arching and rolling, convulsions, salivation and diarrhea. Mouse death during the period of observation was considered as death due to toxic effects of the test compound. The lethal dose and maximum tolerated dose (MTD) were determined during this study. At the end of the experiment, the survivors were sacrificed for necropsy. Gross and histopathological examinations were performed on the major internal organs including the heart, lung, liver, kidney and spleen.

For `CC(C)(N)C(=O)[O-].O.O=[N+]([O-])[O-].[Cu+2].c1cnc2c(c1)ccc1cccnc12` [Cu(II) complex, [Cu(phen)(C-dmg)(H2O)]NO3], the tumor growth ([1]; 4 mg/kg ip daily, 18 days) was “not effective”, the “survival throughout the experiment” value ([1]; 6 mg/kg ip daily) was “only one mouse out of four” and the “Copper staining of liver sections” value ([1]; 4, 5 and 6 mg/kg) was “negative for copper deposits”. For the same compound, the body weight ([1]; 4, 5 and 6 mg/kg) was “little influence”, the “weight of vital organs” value ([1]; 4, 5 and 6 mg/kg, except for liver in the 6 mg/kg group) was “no significant differences” and the tolerability ([1]; 4 and 5 mg/kg dose regimens) was “well tolerated”. For the same compound, the tumor growth ([1]; 5 and 6 mg/kg ip daily) was “significant tumor growth inhibition”, the “Histopathological examination of heart, liver, kidney and lung” value ([1]; all the groups) was “did not show any obvious abnormal changes” and the “necrotic area in the tumor xenografts” value ([1]; treated groups vs control groups, concentration dependent) was “higher percentage of necrotic area”. For the same compound, the Mortality ([2]; 5.5 mg/kg single ip dose) was “No”, the “Observation of mice behavioral and physical changes (after injection)” value ([2]; 5.5 mg/kg single ip dose) was “No clinical signs occurred. It showed normal behavior patterns when provoked” and the “Observation of mice behavioral and physical changes (later)” value ([2]; 5.5 mg/kg single ip dose) was “Normal behavior and activities”. For the same compound, the Mortality ([2]; 7.5 mg/kg single ip dose) was “No”, the “Observation of mice behavioral and physical changes (after injection)” value ([2]; 7.5 mg/kg single ip dose) was “No abnormal clinical signs occurred. It showed normal behavior patterns when provoked” and the “Observation of mice behavioral and physical changes (later)” value ([2]; 7.5 mg/kg single ip dose) was “Normal behavior and activities”. The Mortality ([2]; 12.5 mg/kg single ip dose) was “No”, the “Observation of mice behavioral and physical changes (after injection)” value ([2]; 12.5 mg/kg single ip dose) was “After drug injection, mouse stayed at corner of its cage but resumed its normal behavior and physical activities after 45 min. Body movement happened. It showed normal behavior patterns when provoked” and the “Observation of mice behavioral and physical changes (later)” value ([2]; 12.5 mg/kg single ip dose) was “Normal behavior and activities”. The Mortality ([2]; 17.5 mg/kg single ip dose) was “No”, the “Observation of mice behavioral and physical changes (after injection)” value ([2]; 17.5 mg/kg single ip dose) was “After drug injection, mouse stayed at corner of the cage but resumed its normal behavior and physical activities after 45 min. Body movement happened. It showed normal behavior patterns when provoked” and the “Observation of mice behavioral and physical changes (later)” value ([2]; 17.5 mg/kg single ip dose) was “Normal behavior and activities”. For the same compound, the “Histopathological examination, spleen” value ([2]; 35 mg/kg single ip dose) was “increased in multinucleated giant cells”, the Mortality ([2]; 35.0 mg/kg single ip dose) was “Yes” and the “Observation of mice behavioral and physical changes (after injection)” value ([2]; 35.0 mg/kg single ip dose) was “Mouse was immobile and staying at one corner of the cage about 30 min after drug injection. After 0.5, 1, 2, 3 & 4 h, it was still immobile. Unresponsive to provocation”. The “Observation of mice behavioral and physical changes (later)” value ([2]; 35.0 mg/kg single ip dose) was “It was found dead on Day 2; blood stained urine noted”, the MTD ([2]; single dose treatment, intraperitoneal, estimated) was 17.5 mg/kg and the LD50 ([2]; single intraperitoneal dose, estimated) was 26.25 mg/kg. The “Histopathological examination, all organs examined” value ([2]; single ip doses other than 35 mg/kg) was “no significant morphological changes”.
